Measurements published in patent US20050137243A1, “Antagonists of melanin concentrating hormone effects on the melanin concentrating hormone receptor” (priority 2003, published 2005).

How the values were obtained:
[1] = Pharmacokinetic drug levels in whole brain after oral dose in DIO-mice; type: in vivo; conditions: 10 mpk PO, 0.5-24 h
[2] = Efficacy: % weight loss in diet-induced obese (DIO) mice after two weeks of dosing; type: in vivo; conditions: 100 mpk BID, PO, relative to vehicle control animals

Brain Conc. AUC [1]: 1428 ng·h/g
SMILES: O=C(Nc1ccc(Oc2ccccc2)cc1)Nc1ccc2c(cnn2CCN2CCCC2)c1 [Example 24, N-(4-phenoxyphenyl)-N′-[1-(2-pyrrolidin-1-ylethyl)-1H-indazol-5-yl]urea]
DIO Mice % weight loss @ 14 days [2]: 15%
